Results taken from PubChem BioAssay AID1963867 (Molecular Pharmacology Branch, DTP, NCI, 2024).

Test system: KRAS-mutant PDC tumor spheroid with HUVEC/MSC, viability
Assay: Anticancer human tumor 327498-153-R-J2-PDC patient-derived uterine carcinosarcoma cell line growth inhibition [KRAS2]
Details: for viability, T/C: stronger effect = lower value
Method in brief: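 KRAS-mutant tumor cells were grown as spheroids with HUVEC endothelial cells and human MSCs as stroma. Targeted agents were tested alone and with KRAS pathway inhibitors. Doses started at or near clinical Cmax, or 10 microM, descending half-log.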

[1] = curve of first compound, second compound 0.1 µM
[2] = curve of first compound, second compound 0.316 µM
[3] = curve of first compound, second compound 1 µM
[4] = curve of first compound, second compound 3.16 µM
[5] = curve of first compound, second compound 10 µM
[6] = second compound 0.1 µM, first compound 0.0316 µM
[7] = second compound 0.1 µM, first compound 0.1 µM
[8] = second compound 0.1 µM, first compound 0.316 µM
[9] = second compound 0.1 µM, first compound 1 µM
[10] = second compound 0.1 µM, first compound 3.16 µM
[11] = second compound 0.1 µM, first compound 10 µM
[12] = second compound 0.316 µM, first compound 0.0316 µM
[13] = second compound 0.316 µM, first compound 0.1 µM
[14] = second compound 0.316 µM, first compound 0.316 µM
[15] = second compound 0.316 µM, first compound 1 µM
[16] = second compound 0.316 µM, first compound 3.16 µM
[17] = second compound 0.316 µM, first compound 10 µM
[18] = second compound 1 µM, first compound 0.0316 µM
[19] = second compound 1 µM, first compound 0.1 µM
[20] = second compound 1 µM, first compound 0.316 µM
[21] = second compound 1 µM, first compound 1 µM
[22] = second compound 1 µM, first compound 3.16 µM
[23] = second compound 1 µM, first compound 10 µM
[24] = second compound 3.16 µM, first compound 0.0316 µM
[25] = second compound 3.16 µM, first compound 0.1 µM
[26] = second compound 3.16 µM, first compound 0.316 µM
[27] = second compound 3.16 µM, first compound 1 µM
[28] = second compound 3.16 µM, first compound 3.16 µM
[29] = second compound 3.16 µM, first compound 10 µM
[30] = second compound 10 µM, first compound 0.0316 µM
[31] = second compound 10 µM, first compound 0.1 µM
[32] = second compound 10 µM, first compound 0.316 µM
[33] = second compound 10 µM, first compound 1 µM
[34] = second compound 10 µM, first compound 3.16 µM
[35] = second compound 10 µM, first compound 10 µM
[36] = second compound 0.1 µM, first compound 0.000316 µM
[37] = second compound 0.1 µM, first compound 0.001 µM
[38] = second compound 0.1 µM, first compound 0.00316 µM
[39] = second compound 0.1 µM, first compound 0.01 µM
[40] = second compound 0.316 µM, first compound 0.000316 µM
[41] = second compound 0.316 µM, first compound 0.001 µM
[42] = second compound 0.316 µM, first compound 0.00316 µM
[43] = second compound 0.316 µM, first compound 0.01 µM
[44] = second compound 1 µM, first compound 0.000316 µM
[45] = second compound 1 µM, first compound 0.001 µM
[46] = second compound 1 µM, first compound 0.00316 µM
[47] = second compound 1 µM, first compound 0.01 µM
[48] = second compound 3.16 µM, first compound 0.000316 µM
[49] = second compound 3.16 µM, first compound 0.001 µM
[50] = second compound 3.16 µM, first compound 0.00316 µM
[51] = second compound 3.16 µM, first compound 0.01 µM
[52] = second compound 10 µM, first compound 0.000316 µM
[53] = second compound 10 µM, first compound 0.001 µM
[54] = second compound 10 µM, first compound 0.00316 µM
[55] = second compound 10 µM, first compound 0.01 µM
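Also: spheroids exposed to agents for seven days before reading.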
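For viability, T/C in this document: 100% = DMSO vehicle wells so lower means fewer viable cells.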

SMILES: O=C(c1cc(Cc2n[nH]c(=O)c3ccccc23)ccc1F)N1CCN(C(=O)C2CC2)CC1 + CC1OCC2(CCN(c3cnc(Sc4ccnc(N)c4Cl)c(N)n3)CC2)C1N
- IC50 [1]: 1.66 µM
- IC50 [2]: 1.08 µM
- IC50 [3]: 0.242 µM
- IC50 [4]: < 0.0316 µM
- IC50 [5]: < 0.0316 µM
- viability, T/C [6]: 81.3%
- viability, T/C [7]: 83.8%
- viability, T/C [8]: 75%
- viability, T/C [9]: 62.6%
- viability, T/C [10]: 34.8%
- viability, T/C [11]: 19.4%
- viability, T/C [12]: 70.4%
- viability, T/C [13]: 68.6%
- viability, T/C [14]: 62.6%
- viability, T/C [15]: 52.2%
- viability, T/C [16]: 31.7%
- viability, T/C [17]: 17.5%
- viability, T/C [18]: 104%
- viability, T/C [19]: 60.7%
- viability, T/C [20]: 44.2%
- viability, T/C [21]: 40.9%
- viability, T/C [22]: 21.9%
- viability, T/C [23]: 14.2%
- viability, T/C [24]: 40.5%
- viability, T/C [25]: 37.6%
- viability, T/C [26]: 38.1%
- viability, T/C [27]: 28.7%
- viability, T/C [28]: 17.9%
- viability, T/C [29]: 13.8%
- viability, T/C [30]: 36.7%
- viability, T/C [31]: 31.8%
- viability, T/C [32]: 27.1%
- viability, T/C [33]: 25.3%
- viability, T/C [34]: 15.9%
- viability, T/C [35]: 11.4%

SMILES: CC(C)n1nc(-c2ccc3oc(N)nc3c2)c2c(N)ncnc21 + C=CC(=O)N1CCN(c2nc(=O)n(-c3c(C)ccnc3C(C)C)c3nc(-c4c(O)cccc4F)c(F)cc23)C(C)C1
- IC50 [1]: 0.000576 µM
- IC50 [2]: < 0.000316 µM
- IC50 [3]: < 0.000316 µM
- IC50 [4]: < 0.000316 µM
- IC50 [5]: < 0.000316 µM
- viability, T/C [36]: 57.6%
- viability, T/C [37]: 40.7%
- viability, T/C [38]: 34.6%
- viability, T/C [39]: 17.6%
- viability, T/C [6]: 8.67%
- viability, T/C [7]: 5.6%
- viability, T/C [40]: 45.4%
- viability, T/C [41]: 41.2%
- viability, T/C [42]: 26.1%
- viability, T/C [43]: 14.3%
- viability, T/C [12]: 9.71%
- viability, T/C [13]: 5.39%
- viability, T/C [44]: 49.5%
- viability, T/C [45]: 38%
- viability, T/C [46]: 23.5%
- viability, T/C [47]: 14.4%
- viability, T/C [18]: 7.05%
- viability, T/C [19]: 5.38%
- viability, T/C [48]: 42.1%
- viability, T/C [49]: 33.2%
- viability, T/C [50]: 21.5%
- viability, T/C [51]: 13.9%
- viability, T/C [24]: 6.92%
- viability, T/C [25]: 6.19%
- viability, T/C [52]: 31.1%
- viability, T/C [53]: 25.3%
- viability, T/C [54]: 19.1%
- viability, T/C [55]: 8.99%
- viability, T/C [30]: 5.88%
- viability, T/C [31]: 5.69%

SMILES: Cn1nccc1Nc1nccc(-c2cc3c(s2)C(C)(C)N(CCN2CCOCC2)C3=O)n1 + C=CC(=O)N1CCN(c2nc(=O)n(-c3c(C)ccnc3C(C)C)c3nc(-c4c(O)cccc4F)c(F)cc23)C(C)C1
- IC50 [1]: 1.4 µM
- IC50 [2]: 2.24 µM
- IC50 [3]: 3.12 µM
- IC50 [4]: 0.925 µM
- IC50 [5]: < 0.0316 µM
- viability, T/C [6]: 60.7%
- viability, T/C [7]: 61.5%
- viability, T/C [8]: 55.8%
- viability, T/C [9]: 54.8%
- viability, T/C [10]: 41.8%
- viability, T/C [11]: 36.5%
- viability, T/C [12]: 55.7%
- viability, T/C [13]: 63.8%
- viability, T/C [14]: 55.1%
- viability, T/C [15]: 54%
- viability, T/C [16]: 46.6%
- viability, T/C [17]: 42.2%
- viability, T/C [18]: 63%
- viability, T/C [19]: 56.3%
- viability, T/C [20]: 60.9%
- viability, T/C [21]: 55.2%
- viability, T/C [22]: 49.1%
- viability, T/C [23]: 42.4%
- viability, T/C [24]: 60.5%
- viability, T/C [25]: 59.3%
- viability, T/C [26]: 50.8%
- viability, T/C [27]: 49.6%
- viability, T/C [28]: 48.3%
- viability, T/C [29]: 40.5%
- viability, T/C [30]: 49.9%
- viability, T/C [31]: 47.8%
- viability, T/C [32]: 45.3%
- viability, T/C [33]: 37.7%
- viability, T/C [34]: 41.1%
- viability, T/C [35]: 29.3%

SMILES: COc1cc(Nc2ncc3c(n2)-c2ccc(Cl)cc2C(c2c(F)cccc2OC)=NC3)ccc1C(=O)O + CNCc1ccccc1-c1csc(C(C)Nc2nc(C)nc3cc(OC)c(OC)cc23)c1
- IC50 [1]: < 0.0316 µM
- IC50 [2]: < 0.0316 µM
- IC50 [3]: < 0.0316 µM
- IC50 [4]: < 0.0316 µM
- IC50 [5]: < 0.0316 µM
- viability, T/C [6]: 16.1%
- viability, T/C [7]: 10.8%
- viability, T/C [8]: 9.69%
- viability, T/C [9]: 10.2%
- viability, T/C [10]: 12%
- viability, T/C [11]: 12.3%
- viability, T/C [12]: 15.6%
- viability, T/C [13]: 11.1%
- viability, T/C [14]: 10.5%
- viability, T/C [15]: 10.8%
- viability, T/C [16]: 12.9%
- viability, T/C [17]: 12.8%
- viability, T/C [18]: 14.7%
- viability, T/C [19]: 10.7%
- viability, T/C [20]: 8.64%
- viability, T/C [21]: 8.26%
- viability, T/C [22]: 11.9%
- viability, T/C [23]: 11.6%
- viability, T/C [24]: 0.1%
- viability, T/C [25]: 0.06%
- viability, T/C [26]: 0.05%
- viability, T/C [27]: 0.05%
- viability, T/C [28]: 0.06%
- viability, T/C [29]: 0.15%
- viability, T/C [30]: 0.14%
- viability, T/C [31]: 0.13%
- viability, T/C [32]: 0.14%
- viability, T/C [33]: 0.13%
- viability, T/C [34]: 0.63%
- viability, T/C [35]: 0.22%

SMILES: CN(C)C/C=C/C(=O)Nc1cc2c(Nc3ccc(F)c(Cl)c3)ncnc2cc1O[C@H]1CCOC1 + COc1cc2nc(C)nc(NC(C)c3cc(N)cc(C(F)(F)F)c3)c2cc1OC1CCOC1
- IC50 [1]: > 0.1 µM
- IC50 [2]: > 0.1 µM
- IC50 [3]: > 0.1 µM
- IC50 [4]: 0.0162 µM
- IC50 [5]: > 0.1 µM
- viability, T/C [36]: 88.6%
- viability, T/C [37]: 84%
- viability, T/C [38]: 75.2%
- viability, T/C [39]: 76.7%
- viability, T/C [6]: 69.5%
- viability, T/C [7]: 68.1%
- viability, T/C [40]: 72.5%
- viability, T/C [41]: 76%
- viability, T/C [42]: 64%
- viability, T/C [43]: 67.3%
- viability, T/C [12]: 59.9%
- viability, T/C [13]: 62.4%
- viability, T/C [44]: 90.8%
- viability, T/C [45]: 85.1%
- viability, T/C [46]: 88.1%
- viability, T/C [47]: 86%
- viability, T/C [18]: 83.8%
- viability, T/C [19]: 84.8%
- viability, T/C [48]: 60.9%
- viability, T/C [49]: 57.1%
- viability, T/C [50]: 52.7%
- viability, T/C [51]: 48.2%
- viability, T/C [24]: 49.9%
- viability, T/C [25]: 49.5%
- viability, T/C [52]: 58.5%
- viability, T/C [53]: 56.7%
- viability, T/C [54]: 49.8%
- viability, T/C [55]: 49.3%
- viability, T/C [30]: 53.7%
- viability, T/C [31]: 54.6%

SMILES: CC(=O)OC12COC1CC(O)C1(C)C(=O)C(O)C3=C(C)C(OC(=O)C(O)C(NC(=O)OC(C)(C)C)c4ccccc4)CC(O)(C(OC(=O)c4ccccc4)C21)C3(C)C (stereo unspecified)
- viability, T/C (compound 0.01 µM): 8.03% [middle of 5 runs]
- viability, T/C (compound 0.0316 µM): 6.44% [middle of 5 runs]
- viability, T/C (compound 0.1 µM): 6.83% [middle of 5 runs]
- viability, T/C (compound 0.316 µM): 7.35% [middle of 5 runs]
- viability, T/C (compound 1 µM): 10.6% [middle of 5 runs]
- viability, T/C (compound 3.16 µM): 12.8% [middle of 5 runs]
- IC50 (curve of compound): < 0.01 µM

SMILES: CCNC(=O)CC1N=C(c2ccc(Cl)cc2)c2cc(OC)ccc2-n2c(C)nnc21 (stereo unspecified)
- viability, T/C (compound 0.0316 µM): 102% [middle of 5 runs]
- viability, T/C (compound 0.1 µM): 95.9% [middle of 5 runs]
- viability, T/C (compound 0.316 µM): 77.6% [middle of 5 runs]
- viability, T/C (compound 1 µM): 64.8% [middle of 5 runs]
